What was measured:
B. mori male moths = test system: B. mori male moths; set-up: method as in PMID 24744736, PMID 22836825; settings: conspecific male moths; cited from earlier work
OR3_L349A = OR3_L349A (Bombyx mori, UniProt Q5FBE0, L349A); test: GCaMP6 calcium flux assay, BmOR3/Orco mutant L349A; format: cell-based
Source text: (§1) The first insect pheromone system characterized at the molecular level is that of Bombyx mori, a moth long known to navigate towards its mate guided solely by pheromone cues with impressive navigation accuracy. Two PR/Orco complexes, BmOR1/BmOrco and BmOR3/BmOrco, have been linked to the behavioral responses to pheromones in B. mori (Figure 1A). The conspecific pheromone, bombykol, is detected through BmOR1/Orco and leads to sexual attraction. The heterospecific pheromone, bombykal, is sensed through BmOR3/Orco, and leads to suppression of mating behavior. We first characterized the extent to which both PR/Orco complexes are selective towards their cognate ligands. We used a previously established calcium flux functional assay where we co-transfected HEK293 cells with either BmOR1 or BmOR3, along with the coreceptor, BmOrco (here on referred to as Orco), and the fluorescent calcium reporter, GCaMP6 (Figure 1C). In this assay, ligand-activation of the heteromeric ion channel complexes by addition of either bombykol or bombykal leads to calcium influx, read out as GCaMP6 fluorescence changes that can be monitored in real-time and dose-dependent manner using a fluorescence plate reader. […]
(§2) HEK293T cells were maintained at 37°C with 5% carbon dioxide and grown in high glucose DMEM enhanced with 10% FBS and 1% GlutaMAX (Gibco). […] Cells were kept at 37°C for 18-20 hours before being used for fluorescence plate reading. […]
(§3) On the day of the GCaMP6 assay, Bravo (Agilent), a versatile liquid handler was used to prepare both the odorant plate and the assay plate (transfected cell plate) prior to the fluorescence readout using the FDSS/µcell kinetic plate Imager (Hamamatsu, C13299).
(§4) For the odorant plate, the DMSO dissolved stock solutions were diluted in 19.8 µL of Reading buffer (20 mM HEPES/NaOH (pH 7.4), 1× HBSS (Gibco), 3 mM Na2CO3, 1 mM MgSO4, and 5 mM CaCl2) to give a final concentration ranging from 3.16 nM to 1 mM with 1% DMSO. […]
(§5) The kinetics of the fluorescence change upon odorant addition were measured using the FDSS/µcell kinetic plate Imager (Hamamatsu, C13299). […]

OR3_V348A = OR3_V348A (Bombyx mori, UniProt Q5FBE0, V348A); test: GCaMP6 calcium flux assay, BmOR3/Orco mutant V348A; format: cell-based
Source text: as §1, §2, §3, §4, §5

OR3_C215S = OR3_C215S (Bombyx mori, UniProt Q5FBE0, C215S); test: GCaMP6 calcium flux assay, BmOR3/Orco mutant C215S; format: cell-based
Source text: as §1, §2, §3, §4, §5

OR3_K58S = OR3_K58S (Bombyx mori, UniProt Q5FBE0, K58S); test: GCaMP6 calcium flux assay, BmOR3/Orco mutant K58S; format: cell-based
Source text: (§6) The first insect pheromone system characterized at the molecular level is that of Bombyx mori, a moth long known to navigate towards its mate guided solely by pheromone cues with impressive navigation accuracy. Two PR/Orco complexes, BmOR1/BmOrco and BmOR3/BmOrco, have been linked to the behavioral responses to pheromones in B. mori (Figure 1A). The conspecific pheromone, bombykol, is detected through BmOR1/Orco and leads to sexual attraction. The heterospecific pheromone, bombykal, is sensed through BmOR3/Orco, and leads to suppression of mating behavior. We first characterized the extent to which both PR/Orco complexes are selective towards their cognate ligands. We used a previously established calcium flux functional assay where we co-transfected HEK293 cells with either BmOR1 or BmOR3, along with the coreceptor, BmOrco (here on referred to as Orco), and the fluorescent calcium reporter, GCaMP6 (Figure 1C). In this assay, ligand-activation of the heteromeric ion channel complexes by addition of either bombykol or bombykal leads to calcium influx, read out as GCaMP6 fluorescence changes that can be monitored in real-time and dose-dependent manner using a fluorescence plate reader. […] But we also found both PR/Orco complexes to be somewhat promiscuous: both complexes are activated by their non-cognate pheromones (bombykal for BmOR1/Orco and bombykol for BmOR3/Orco) with a response that is ~10 fold smaller than their cognate pheromones. […] Instead, two complexes with reciprocal specificities enable an unequivocal response to bombykal and bombykol across all concentrations, ensuring the behavioral accuracy needed for mate selection.
(§7) The assay was performed similarly to method descriptions in previous studies.
(§8) All DNA constructs used in this assay were cloned into a modified pME18 vector that contains a SV40 promotor.
(§9) Each transfection condition (per well) contained a total of 300 ng of plasmids in 1:1:1 ratio of the GCaMP6, Orco, and the corresponding OR plasmid that was diluted in 4.8 uL of OptiMEM (Gibco) along with 0.1 uL of P3000. The mixture was incubated for 5 minutes and then further incubated for 20 minutes after being mixed with Lipofectamine 3000 (Invitrogen) diluted in OptiMEM. This mixture was scaled accordingly to batch transfect 50-100 wells per construct per plate.
(§10) HEK293T cells were maintained at 37°C with 5% carbon dioxide and grown in high glucose DMEM enhanced with 10% FBS and 1% GlutaMAX (Gibco). Cells were detached with TrypLE Express Enzyme and resuspended in FluoroBrite DMEM (Gibco) with 10% FBS and 1% GlutaMAX (Gibco) to a concentration of 5 × 10^5 cells/ml. Cells were combined with each transfection condition and added to 2x16 wells of a 384-well plate (Grenier CELLSTAR). Cells were kept at 37°C for 18-20 hours before being used for fluorescence plate reading.
(§11) Odorant plates were prepared using D300e (Hewlett Packard), a digital, non-contact dispenser. Briefly, stock solutions of bombykol and bombykal were prepared in DMSO and plated onto 384-plates (Greiner, Catalog #784201) in a titrating volume to obtain a concentration series ranging between 316 nM and 100 mM with a final volume of 0.2 µL.
(§12) The odorant plates were kept at −20 °C until usage.
as §3
(§13) For the odorant plate, the DMSO dissolved stock solutions were diluted in 19.8 µL of Reading buffer (20 mM HEPES/NaOH (pH 7.4), 1× HBSS (Gibco), 3 mM Na2CO3, 1 mM MgSO4, and 5 mM CaCl2) to give a final concentration ranging from 3.16 nM to 1 mM with 1% DMSO. For the cell plate, the FluoroBrite DMEM (Gibco) was exchanged out with the […]
as §5

OR3_C215A = OR3_C215A (Bombyx mori, UniProt Q5FBE0, C215A); test: GCaMP6 calcium flux assay, BmOR3/Orco mutant C215A; format: cell-based
Source text: as §1, §2, §3, §4, §5

OR3_L353A = OR3_L353A (Bombyx mori, UniProt Q5FBE0, L353A); test: GCaMP6 calcium flux assay, BmOR3/Orco mutant L353A; format: cell-based
Source text: as §1, §2, §3, §4, §5

OR3_K58A = OR3_K58A (Bombyx mori, UniProt Q5FBE0, K58A); test: GCaMP6 calcium flux assay, BmOR3/Orco mutant K58A; format: cell-based
Source text: as §6, §7, §8, §9, §10, §11, §12, §3, §13, §5

OR3_K58Q = OR3_K58Q (Bombyx mori, UniProt Q5FBE0, K58Q); test: GCaMP6 calcium flux assay, BmOR3/Orco mutant K58Q; format: cell-based
Source text: as §6, §7, §8, §9, §10, §11, §12, §3, §13, §5

BmOR3/Orco = BmOR3/Orco (Bombyx mori, UniProt Q5FBE0); test: GCaMP6 calcium flux assay, wild-type BmOR3/Orco; format: cell-based
Source text: as §6, §7, §8, §9, §10, §11, §12, §3, §13, §5

BmOR1/Orco = BmOR1/Orco (Bombyx mori, UniProt Q5WA61); test: GCaMP6 calcium flux assay, wild-type BmOR1/Orco; format: cell-based
Source text: as §6, §7, §8, §9, §10, §11, §12, §3, §13, §5

OR3_F159A = OR3_F159A (Bombyx mori, UniProt Q5FBE0, F159A); test: GCaMP6 calcium flux assay, BmOR3/Orco mutant F159A; format: cell-based
Source text: as §1, §2, §3, §4, §5

OR3_V352A = OR3_V352A (Bombyx mori, UniProt Q5FBE0, V352A); test: GCaMP6 calcium flux assay, BmOR3/Orco mutant V352A; format: cell-based
Source text: as §1, §2, §3, §4, §5

Sequence of OR3_F159A (Q5FBE0 entry or part of it F159A): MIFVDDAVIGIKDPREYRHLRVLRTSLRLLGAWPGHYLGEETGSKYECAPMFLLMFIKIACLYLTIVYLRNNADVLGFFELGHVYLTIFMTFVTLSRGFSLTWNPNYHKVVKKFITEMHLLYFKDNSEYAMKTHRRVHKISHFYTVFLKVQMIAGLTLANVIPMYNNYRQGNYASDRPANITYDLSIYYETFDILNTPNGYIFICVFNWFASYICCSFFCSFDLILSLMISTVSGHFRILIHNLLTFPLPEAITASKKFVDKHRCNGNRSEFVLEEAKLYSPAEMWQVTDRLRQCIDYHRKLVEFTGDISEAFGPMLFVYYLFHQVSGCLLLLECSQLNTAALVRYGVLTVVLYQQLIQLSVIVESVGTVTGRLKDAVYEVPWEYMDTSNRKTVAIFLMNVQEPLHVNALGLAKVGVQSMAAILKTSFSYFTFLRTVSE
Sequence of OR3_F159A (Q7YT34 entry or part of it, stated change not applied, further chain): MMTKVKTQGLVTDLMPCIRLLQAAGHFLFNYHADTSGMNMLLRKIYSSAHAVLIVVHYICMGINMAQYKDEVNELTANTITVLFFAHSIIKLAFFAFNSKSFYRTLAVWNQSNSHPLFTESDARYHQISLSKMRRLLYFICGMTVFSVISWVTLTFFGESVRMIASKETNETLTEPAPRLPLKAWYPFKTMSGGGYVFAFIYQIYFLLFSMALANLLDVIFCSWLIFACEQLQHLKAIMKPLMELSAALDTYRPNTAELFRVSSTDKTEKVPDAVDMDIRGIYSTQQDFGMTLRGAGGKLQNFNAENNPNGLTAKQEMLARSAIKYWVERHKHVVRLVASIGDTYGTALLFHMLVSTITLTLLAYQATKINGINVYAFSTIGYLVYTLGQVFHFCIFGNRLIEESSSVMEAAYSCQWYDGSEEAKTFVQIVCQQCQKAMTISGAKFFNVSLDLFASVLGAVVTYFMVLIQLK
Sequence of OR3_L353A (Q5FBE0 entry or part of it L353A): as the sequence (Q5FBE0 entry or part of it F159A) above, with A159F, L353A counted along it
Sequence of OR3_L353A (Q7YT34 entry or part of it, stated change not applied, further chain): as the sequence (Q7YT34 entry or part of it, stated change not applied, further chain) above
Sequence of OR3_V348A (Q7YT34 entry or part of it, stated change not applied): as the sequence (Q7YT34 entry or part of it, stated change not applied, further chain) above
Sequence of OR3_V348A (Q5FBE0 entry or part of it V348A): as the sequence (Q5FBE0 entry or part of it F159A) above, with A159F, V348A counted along it
Sequence of OR3_L349A (Q7YT34 entry or part of it, stated change not applied): as the sequence (Q7YT34 entry or part of it, stated change not applied, further chain) above
Sequence of OR3_L349A (Q5FBE0 entry or part of it L349A): as the sequence (Q5FBE0 entry or part of it F159A) above, with A159F, L349A counted along it
Sequence of OR3_C215S (Q7YT34 entry or part of it, stated change not applied): as the sequence (Q7YT34 entry or part of it, stated change not applied, further chain) above
Sequence of OR3_C215S (Q5FBE0 entry or part of it C215S): as the sequence (Q5FBE0 entry or part of it F159A) above, with A159F, C215S counted along it
Sequence of BmOR1/Orco (Q7YT34 entry or part of it): as the sequence (Q7YT34 entry or part of it, stated change not applied, further chain) above
Sequence of BmOR1/Orco (Q5WA61 entry or part of it): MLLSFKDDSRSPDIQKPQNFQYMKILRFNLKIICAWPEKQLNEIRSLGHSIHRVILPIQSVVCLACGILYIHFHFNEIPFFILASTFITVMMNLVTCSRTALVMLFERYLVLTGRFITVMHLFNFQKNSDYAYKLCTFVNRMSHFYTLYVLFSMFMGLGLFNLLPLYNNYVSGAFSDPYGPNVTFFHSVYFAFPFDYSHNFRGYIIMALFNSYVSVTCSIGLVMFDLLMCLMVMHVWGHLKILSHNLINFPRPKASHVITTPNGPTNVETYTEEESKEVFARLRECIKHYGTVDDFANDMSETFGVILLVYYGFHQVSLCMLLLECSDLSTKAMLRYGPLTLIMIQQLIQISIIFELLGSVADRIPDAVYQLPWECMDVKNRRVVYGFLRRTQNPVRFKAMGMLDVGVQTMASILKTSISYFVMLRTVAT
Sequence of OR3_V352A (Q5FBE0 entry or part of it V352A): as the sequence (Q5FBE0 entry or part of it F159A) above, with A159F, V352A counted along it
Sequence of OR3_V352A (Q7YT34 entry or part of it, stated change not applied, further chain): as the sequence (Q7YT34 entry or part of it, stated change not applied, further chain) above
Sequence of OR3_K58Q (Q5FBE0 entry or part of it K58Q): as the sequence (Q5FBE0 entry or part of it F159A) above, with K58Q, A159F counted along it
Sequence of OR3_K58Q (Q7YT34 entry or part of it, stated change not applied, further chain): as the sequence (Q7YT34 entry or part of it, stated change not applied, further chain) above
Sequence of OR3_C215A (Q5FBE0 entry or part of it C215A): as the sequence (Q5FBE0 entry or part of it F159A) above, with A159F, C215A counted along it
Sequence of OR3_C215A (Q7YT34 entry or part of it, stated change not applied, further chain): as the sequence (Q7YT34 entry or part of it, stated change not applied, further chain) above
Sequence of OR3_K58S (Q5FBE0 entry or part of it K58S): as the sequence (Q5FBE0 entry or part of it F159A) above, with K58S, A159F counted along it
Sequence of OR3_K58S (Q7YT34 entry or part of it, stated change not applied, further chain): as the sequence (Q7YT34 entry or part of it, stated change not applied, further chain) above
Sequence of BmOR3/Orco (Q5FBE0 entry or part of it): as the sequence (Q5FBE0 entry or part of it F159A) above, with A159F counted along it
Sequence of BmOR3/Orco (Q7YT34 entry or part of it, further chain): as the sequence (Q7YT34 entry or part of it, stated change not applied, further chain) above
Sequence of OR3_K58A (Q5FBE0 entry or part of it K58A): as the sequence (Q5FBE0 entry or part of it F159A) above, with K58A, A159F counted along it
Sequence of OR3_K58A (Q7YT34 entry or part of it, stated change not applied, further chain): as the sequence (Q7YT34 entry or part of it, stated change not applied, further chain) above

CCC/C=C\C=C\CCCCCCCCC=O [Bombykal, bombykal]
behavioral response (B. mori male moths): suppresses mating behavior
EC50 (OR3_L349A): 3.39 µM
Hill Coefficient (n± SE) (OR3_L349A; OR3_L349A): 5 ± 3
Max (ΔF/F ± SE) (OR3_L349A; OR3_L349A): 0.48 ± 0.04 ΔF/F
EC50 (OR3_V348A): 0.479 µM
Hill Coefficient (n± SE) (OR3_V348A; OR3_V348A): 1.25 ± 0.08
Max (ΔF/F ± SE) (OR3_V348A; OR3_V348A): 1.13 ± 0.04 ΔF/F
EC50 (OR3_C215S): 1.26 µM
Hill Coefficient (n± SE) (OR3_C215S; OR3_C215S): 1.09 ± 0.07
Max (ΔF/F ± SE) (OR3_C215S; OR3_C215S): 0.82 ± 0.05 ΔF/F
EC50 (OR3_K58S): 13.8 µM
Hill Coefficient (n± SE) (OR3_K58S; OR3_K58S): 1.2 ± 0.2
Max (ΔF/F ± SE) (OR3_K58S; OR3_K58S): 0.36 ± 0.03 ΔF/F
EC50 (OR3_C215A): 3.16 µM
Hill Coefficient (n± SE) (OR3_C215A; OR3_C215A): 1.4 ± 0.3
Max (ΔF/F ± SE) (OR3_C215A; OR3_C215A): 0.82 ± 0.03 ΔF/F
EC50 (OR3_L353A): 0.501 µM
Hill Coefficient (n± SE) (OR3_L353A; OR3_L353A): 1.3 ± 0.2
Max (ΔF/F ± SE) (OR3_L353A; OR3_L353A): 0.91 ± 0.04 ΔF/F
EC50 (OR3_K58A): 15.8 µM
Hill Coefficient (n± SE) (OR3_K58A; OR3_K58A): 0.8 ± 0.2
Max (ΔF/F ± SE) (OR3_K58A; OR3_K58A): 0.18± 0.03 ΔF/F
EC50 (OR3_K58Q): 10.2 µM
Hill Coefficient (n± SE) (OR3_K58Q; OR3_K58Q): 1.3 ± 0.1
Max (ΔF/F ± SE) (OR3_K58Q; OR3_K58Q): 0.68 ± 0.02 ΔF/F
EC50 (BmOR3/Orco; EC50, HEK293 cells co-transfected with BmOR3, BmOrco, GCaMP6): 0.16 µM
EC50 (BmOR3/Orco; Mean (-log EC50 ± SE), wild-type BmOR3/Orco): 0.162 µM
Hill Coefficient (n± SE) (BmOR3/Orco; wild-type BmOR3/Orco): 1.12 ± 0.08
Max (ΔF/F ± SE) (BmOR3/Orco; wild-type BmOR3/Orco, ΔF/F at highest ligand concentration): 0.98 ± 0.05 ΔF/F
EC50 (BmOR1/Orco; EC50, HEK293 cells co-transfected with BmOR1, BmOrco, GCaMP6): 3 µM
EC50 (BmOR1/Orco; Mean (-log EC50 ± SE), wild-type BmOR1/Orco): 3.02 µM
response to non-cognate pheromone, fold smaller than cognate pheromone (BmOR1/Orco; bombykal vs cognate bombykol at BmOR1/Orco): ~ 10 fold
Hill Coefficient (n± SE) (BmOR1/Orco; wild-type BmOR1/Orco): 1.41 ± 0.09
Max (ΔF/F ± SE) (BmOR1/Orco; wild-type BmOR1/Orco, ΔF/F at highest ligand concentration): 1.02 ± 0.05 ΔF/F
EC50 (OR3_F159A): 12.6 µM
Hill Coefficient (n± SE) (OR3_F159A; OR3_F159A): 4 ± 2
Max (ΔF/F ± SE) (OR3_F159A; OR3_F159A): 0.16 ± 0.02 ΔF/F
EC50 (OR3_V352A): 0.537 µM
Hill Coefficient (n± SE) (OR3_V352A; OR3_V352A): 1.9 ± 0.2
Max (ΔF/F ± SE) (OR3_V352A; OR3_V352A): 0.63 ± 0.03 ΔF/F

From doi:10.1101/2025.05.30.657074, “A covalent recognition strategy enables conspecific mate identification” (bioRxiv, 2025)
